# The source made the active and inactive calls.
# Assays:
# [1] = Trypanosoma cruzi growth suppression in host cells – NIH3T3 host cells, beta-gal luminescence, confirmation (AID 2044); format: functional, cell-based;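 note: intracellular parasites grown in NIH/3T3 mouse fibroblasts as host cells; luminescent beta-galactosidase reporter signal from transgenic T. cruzi replicating inside host cells; inhibitors lower the luminescence signal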
# [2] = NIH3T3 cell viability loss – ATP luminescence, mouse fibroblasts, counter-screen, dose response (AID 2010); format: functional, cell-based;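 note: cells exposed to compound for about 90 hours before reading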
# [3] = cells; format: functional
# [4] = THP-1 cell cytotoxicity, dose response, cytotoxicity control for non-replicating M. tuberculosis project (AID 489025); format: functional
# [5] = target: Induced myeloid leukemia cell differentiation protein Mcl-1 (Homo sapiens, UniProt Q07820); format: functional
# Sequence of Induced myeloid leukemia cell differentiation protein Mcl-1 (Q07820 whole entry): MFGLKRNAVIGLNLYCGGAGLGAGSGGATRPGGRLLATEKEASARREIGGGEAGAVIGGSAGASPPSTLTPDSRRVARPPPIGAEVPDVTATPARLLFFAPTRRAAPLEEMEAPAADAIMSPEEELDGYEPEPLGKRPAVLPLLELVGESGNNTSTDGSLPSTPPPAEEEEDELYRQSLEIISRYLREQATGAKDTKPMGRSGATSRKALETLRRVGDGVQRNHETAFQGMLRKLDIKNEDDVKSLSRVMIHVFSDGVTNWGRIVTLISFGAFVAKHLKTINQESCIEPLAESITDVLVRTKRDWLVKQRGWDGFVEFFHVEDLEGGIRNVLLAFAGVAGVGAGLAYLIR
# [6] = target: Eukaryotic translation initiation factor 4E (Mus musculus, UniProt P63073); assay: blockers of eIF4G binding by eIF4E – biochemical, TR-FRET, dose response (AID 855); format: functional;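 note: potency for disrupting eIF4E binding to eIF4GI seen as loss of FRET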
# Sequence of Eukaryotic translation initiation factor 4E (P63073 whole entry): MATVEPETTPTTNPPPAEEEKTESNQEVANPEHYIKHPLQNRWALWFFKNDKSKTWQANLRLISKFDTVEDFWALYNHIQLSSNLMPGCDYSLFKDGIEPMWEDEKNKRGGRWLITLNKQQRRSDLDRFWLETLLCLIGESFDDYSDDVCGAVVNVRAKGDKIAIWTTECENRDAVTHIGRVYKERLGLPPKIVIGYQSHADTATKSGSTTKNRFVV
# [7] = cells
# [8] = Luminescence Cell-Based Dose Response HTS to Identify Activators of Luciferase Translation or Activity in H4 […] Cells. [Related pubchem assays: 1829 (Project Summary), 1814 (Primary HTS)]; format: functional
# [9] = fluconazole-exposed Candida albicans growth modulators – fluorescence, retest, confirmation (AID 2467); format: functional, cell-based
# [10] = Luminescence Cell-Based Dose Confirmation HTS to Identify Activators of 5'UTR Stem-Loop Driven Alpha-Synuclein mRNA Translation in H4 Neuroglioblastoma Cells. [Related pubchem assays: 1829 (Project Summary), 1814 (Primary HTS)]; format: functional
# [11] = NIH-3T3 fibroblast cytotoxicity, dose response, cytotoxicity control, cell-based, fluorescence, Alamar Blue, secondary assay (AID 2327); format: functional;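 note: NIH-3T3 mouse fibroblasts cultured with fluconazole at 8 µg/mL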
# [12] = tested on: INS1; assay: INS-1E survival protection against cytokine death – cell-based, luminescence, retest, dose response (AID 449756); format: functional; conditions: Rattus norvegicus;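 note: cell death triggered by IL-1 beta plus TNF-alpha plus IFN-gamma mixture; protective hits raise ATP signal compared with cytokine alone wells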
# [13] = tested on: H4; assay: Luminescence Cell-Based Dose Response HTS to Identify Activators of 5'UTR Stem-Loop Driven Prion Protein mRNA Translation in H4 Neuroglioblastoma Cells. [Related pubchem assays: 1829 (Project Summary), 1814 (Primary HTS)]; format: functional; conditions: Homo sapiens
# [14] = HEK-293T cell viability reduction – luminescence, B-cell screen hits, cytotoxicity control for BCR NF-kB inhibitor project, dose response (AID 489021); format: functional, cell-based;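 note: HEK-293T cells carrying an NF-kB luciferase reporter; cells exposed to compound for about 14 hours before viability readout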
# [15] = tested on: HEK293; assay: EBV LMP1 TES2 canonical NF-kB signalling blockers – cell-based, HEK293, luciferase, cherry-pick, dose response (AID 588343); format: functional; conditions: Homo sapiens
# [16] = cells; remark: listed apart in the source
# [17] = target: T1, Heat shock factor protein 1 (Mus musculus, UniProt P38532); assay: decrease of HSF1-responsive luciferase luminescence – cell-based, NIH3T3, dose retest, confirmation (AID 2382); format: functional;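 note: NIH3T3 fibroblasts with HSF1-driven luciferase reporter stressed by proteasome inhibitor MG132; luminescence from HSF1-driven luciferase expression after 8 hours of MG132 stress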
# T1 sequence (P38532 whole entry): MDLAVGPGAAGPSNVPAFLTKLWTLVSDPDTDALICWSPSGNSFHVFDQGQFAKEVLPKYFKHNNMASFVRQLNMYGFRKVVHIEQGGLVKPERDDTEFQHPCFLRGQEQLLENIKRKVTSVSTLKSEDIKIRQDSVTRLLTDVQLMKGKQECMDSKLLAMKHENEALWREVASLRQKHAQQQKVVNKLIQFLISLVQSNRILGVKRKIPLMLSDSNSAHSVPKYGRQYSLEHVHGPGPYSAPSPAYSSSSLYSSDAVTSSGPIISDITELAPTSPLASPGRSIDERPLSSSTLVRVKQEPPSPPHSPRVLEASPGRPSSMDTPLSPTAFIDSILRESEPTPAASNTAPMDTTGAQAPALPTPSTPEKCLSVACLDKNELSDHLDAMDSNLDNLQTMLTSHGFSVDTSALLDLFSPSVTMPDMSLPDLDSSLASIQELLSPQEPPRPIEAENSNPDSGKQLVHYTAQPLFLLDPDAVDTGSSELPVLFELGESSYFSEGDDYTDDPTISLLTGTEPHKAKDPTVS
# [18] = target: T2, Leucine aminopeptidase (Plasmodium falciparum 3D7, UniProt Q8IL11); assay: P. falciparum M17LAP inhibitors, primary screen, biochemical, fluorogenic H-Leu-NHMec substrate, 1536-well (AID 1619); format: functional
# T2 sequence (Q8IL11 whole entry): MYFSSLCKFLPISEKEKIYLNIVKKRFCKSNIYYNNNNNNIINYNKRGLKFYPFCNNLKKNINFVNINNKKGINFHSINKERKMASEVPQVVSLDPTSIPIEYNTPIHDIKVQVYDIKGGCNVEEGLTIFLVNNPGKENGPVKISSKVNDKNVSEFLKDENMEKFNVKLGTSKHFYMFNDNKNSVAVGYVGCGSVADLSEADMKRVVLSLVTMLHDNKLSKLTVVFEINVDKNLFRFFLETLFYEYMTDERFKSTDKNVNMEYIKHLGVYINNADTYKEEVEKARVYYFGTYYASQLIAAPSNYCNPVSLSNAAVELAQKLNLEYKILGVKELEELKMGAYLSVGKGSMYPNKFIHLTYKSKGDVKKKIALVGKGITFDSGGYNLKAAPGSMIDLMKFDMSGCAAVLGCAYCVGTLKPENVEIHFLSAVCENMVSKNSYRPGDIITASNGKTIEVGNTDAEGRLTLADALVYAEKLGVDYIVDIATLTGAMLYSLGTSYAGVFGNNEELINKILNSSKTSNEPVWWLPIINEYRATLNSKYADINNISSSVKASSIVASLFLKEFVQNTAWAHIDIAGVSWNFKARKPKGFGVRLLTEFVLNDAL
# [19] = target: Large T antigen (Simian virus 40, UniProt P03070); format: functional, Betapolyomavirus macacae;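 note: Confirmatory-stage PubChem screen for compounds that inhibit SV40 T antigen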
# Sequence of Large T antigen (P03070 whole entry, the tested form may be a part): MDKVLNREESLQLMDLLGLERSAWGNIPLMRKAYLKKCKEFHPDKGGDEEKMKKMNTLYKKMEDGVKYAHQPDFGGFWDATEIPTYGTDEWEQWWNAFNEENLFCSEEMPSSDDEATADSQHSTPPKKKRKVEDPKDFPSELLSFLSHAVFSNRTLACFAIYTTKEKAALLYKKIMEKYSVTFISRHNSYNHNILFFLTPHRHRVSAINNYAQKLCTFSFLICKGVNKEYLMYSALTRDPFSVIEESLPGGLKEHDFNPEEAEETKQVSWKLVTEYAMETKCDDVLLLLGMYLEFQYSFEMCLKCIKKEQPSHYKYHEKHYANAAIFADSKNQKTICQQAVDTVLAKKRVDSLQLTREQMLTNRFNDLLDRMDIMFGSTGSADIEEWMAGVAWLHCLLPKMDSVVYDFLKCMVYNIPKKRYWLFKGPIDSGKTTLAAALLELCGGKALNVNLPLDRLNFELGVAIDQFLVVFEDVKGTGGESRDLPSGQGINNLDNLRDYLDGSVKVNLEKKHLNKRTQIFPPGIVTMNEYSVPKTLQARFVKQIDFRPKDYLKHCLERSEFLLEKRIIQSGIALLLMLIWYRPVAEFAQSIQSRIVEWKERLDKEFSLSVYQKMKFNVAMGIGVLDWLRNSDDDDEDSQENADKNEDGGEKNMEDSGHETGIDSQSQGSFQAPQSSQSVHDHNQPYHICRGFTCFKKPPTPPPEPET
# [20] = blockers of HIV-1 ZM109 envelope-driven cell-cell fusion – HeLa effector, CEM target cells, luciferase, cherry-pick, dose response (AID 652058); format: functional, cell-based;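 note: luciferase signal from HIV-1 Env mediated cell-cell fusion of effector and target cells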
# [21] = blockers of HIV-1 envelope-mediated cell-cell fusion – cherry-pick, dose response (AID 652057); format: functional, cell-based
# [22] = HIV-1 AD8 envelope cell-cell fusion blockers – cherry-pick, dose response (AID 652062); format: functional, cell-based;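 note: luciferase signal from cell-cell fusion driven by HIV-1 clade B AD8 Env; potency is for inhibitors of fusion seen as a drop in luminescence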
# [23] = viability loss in CEM21 cells – cell-based, CellTiter-Glo luminescence, cherry-picked, cytotoxicity control for viral fusion inhibitor project, dose response (AID 652042); format: functional;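 note: potency for signal decrease meaning cytotoxicity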
# [24] = off-target signal loss in HeLa-CEM21 co-culture – HeLa F-luc CTL cells, cherry-picked, counter-screen for HIV-1 Env fusion inhibitor project, dose response (AID 652040); format: functional, cell-based;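 note: potency for signal decrease marking cytotoxic or nonspecific inhibition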
# [25] = tested on: Vero; assay: cells; format: functional, cell-based; conditions: Chlorocebus sabaeus
# [26] = viability of uninfected HEp-2 cells – cell-based, HTS, cytotoxicity control for RSV inhibitor project, dose response (AID 2410); format: functional; conditions: human respiratory syncytial virus
# [27] = target: T3, Latent membrane protein 1 (Human herpesvirus 4 (strain B95-8), UniProt P03230); assay: LMP1 TES1 pathway selectivity over dsRED control – imaging, HEK293T, dual-color eGFP/dsRED, cherry-picks, selectivity assay for LMP1 NF-kB inhibitor project, dose response (AID 588398); format: functional, cell-based
# T3 sequence (P03230 whole entry): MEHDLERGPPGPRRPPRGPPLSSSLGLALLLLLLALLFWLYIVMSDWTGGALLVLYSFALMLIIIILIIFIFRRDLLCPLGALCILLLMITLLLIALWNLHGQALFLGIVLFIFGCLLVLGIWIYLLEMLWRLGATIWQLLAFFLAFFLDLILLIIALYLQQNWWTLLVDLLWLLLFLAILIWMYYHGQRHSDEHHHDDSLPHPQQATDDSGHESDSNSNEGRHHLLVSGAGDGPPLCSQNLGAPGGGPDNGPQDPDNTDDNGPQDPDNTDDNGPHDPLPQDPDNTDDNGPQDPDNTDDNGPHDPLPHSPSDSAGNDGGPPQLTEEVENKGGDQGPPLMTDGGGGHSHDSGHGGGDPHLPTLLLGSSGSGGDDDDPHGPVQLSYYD
# [28] = target: T4, DNA repair protein RAD52 homolog (Homo sapiens, UniProt P43351); format: functional, biochemical
# T4 sequence (P43351 whole entry): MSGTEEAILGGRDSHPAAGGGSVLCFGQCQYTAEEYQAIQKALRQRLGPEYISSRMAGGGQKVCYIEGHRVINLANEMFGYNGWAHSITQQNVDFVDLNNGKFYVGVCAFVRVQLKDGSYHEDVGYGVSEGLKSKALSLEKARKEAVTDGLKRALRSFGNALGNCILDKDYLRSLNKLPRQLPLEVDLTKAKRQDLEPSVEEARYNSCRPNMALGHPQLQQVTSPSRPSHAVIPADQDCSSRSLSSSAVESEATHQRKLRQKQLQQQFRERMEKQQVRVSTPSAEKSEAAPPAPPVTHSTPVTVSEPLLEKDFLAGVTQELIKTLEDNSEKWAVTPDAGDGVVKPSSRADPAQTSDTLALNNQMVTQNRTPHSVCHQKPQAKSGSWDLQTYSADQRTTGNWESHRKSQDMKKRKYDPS
# [29] = general cell-killing toxicity readout – plate reader, dry powder samples, cytotoxicity control for PAX8 inhibitor project, dose response (AID 743021); format: functional, cell-based
smiles,measurement,setting,value
C=CCc1cc(Cl)ccc1OCCCn1ccnc1,EC50,[1],2.12 µM (active)
same,EC50,[2],> 60 µM (not active)
same,IC50,[3],16.7 µM (active)
same,CC50,[4],> 40 µM (active)
CC(=O)Nc1ccc(C(=O)Nc2cccc(-c3cnc4ccccc4n3)c2)cc1,IC50,[5],25.5 µM (not active)
same,IC50,[6],50 µM (inactive)
CC(NC(=O)CSc1nnc(CC(=O)Nc2ccc(Cl)c(Cl)c2)n1C)c1ccccc1 (configuration not stated),IC50,[6],> 64 µM (inactive)
Cc1ncc(CN2CCCC(CCC(=O)NCc3ccc(F)c(F)c3)C2)s1 (configuration not stated),EC50,[1],< 0.1 µM (active)
same,EC50,[7],0.14 µM (active)
same,EC50,[2],> 60 µM (inconclusive)
COc1cc(CN2CCCC(CCC(=O)NCc3ccc(C)o3)C2)cc2c1OCO2 (configuration not stated),EC50,[1],< 0.1 µM (active)
same,EC50,[7],0.015 µM (active)
same,EC50,[2],> 60 µM (not active)
COc1ccc(-[n+]2c(-c3ccc(Br)cc3)cn3c2CCc2ccccc2-3)cc1,EC50,[8],> 120 µM (not active)
same,EC50,[9],1.62 µM (active)
same,EC50,[1],0.424 µM (active)
same,EC50,[10],> 120 µM (not active)
same,EC50,[11],> 160 µM (inactive)
same,AC50,[12],2.15 µM (active)
same,EC50,[13],> 120 µM (not active)
same,EC50,[2],> 30 µM (not active)
same,IC50,[14],> 80 µM (inactive)
Cc1nc(Nc2c(Cl)cccc2Cl)sc1C(=O)Nc1ccccc1,IC50,[14],> 80 µM (inactive)
Cc1ccc(SCCOCCN2CC(C)OC(C)C2)cc1 (configuration not stated),EC50,[1],< 0.1 µM (active)
same,EC50,[7],0.007 µM (active)
same,EC50,[2],> 60 µM (not active)
COc1ccc(OCc2cccc(C(=O)NN)c2)cc1,AC50,[15],3.57 µM (active)
same,IC50,[14],> 80 µM (inactive)
COC(=O)CSc1nnc(-c2sc3ccccc3c2Cl)o1,IC50,[14],> 80 µM (inactive)
COc1ccc(S(=O)(=O)N2CCN(CCO)CC2)cc1-c1nnc2c3ccccc3c(C)nn12,IC50,[16],4.08 µM (active)
same,EC50,[17],> 195 µM (not active)
COc1ccc(C2(O)CCN(CC(=O)Nc3nc(-c4ccccc4)cs3)CC2)cc1,IC50,[3],16.7 µM (active)
same,CC50,[4],> 40 µM (active)
O=C(O)/C=C/C(=O)Nc1ccc(Oc2ccc(NC(=O)/C=C/C(=O)O)cc2)cc1,IC50,[18],14.8 µM (active)
same,IC50,[19],> 100 µM (active)
CCCCN1C(=O)C(O)(c2ccccc2)c2cc(Br)ccc21 (configuration not stated),AC50,[20],4.73 µM (active)
same,AC50,[21],4.89 µM (active)
same,AC50,[22],7.82 µM (active)
same,AC50,[23],48.2 µM (active)
same,AC50,[24],6.01 µM (active)
Cc1ccc(C)c(NC(=O)C2CC(Cl)=CCC2C(=O)O)c1 (configuration not stated),IC50,[18],18.6 µM (active)
O=C(O)CSc1ccccn1,IC50,[6],> 64 µM (inactive)
O=C(O)C1CC=CCC1C(=O)Nc1ccc(S(=O)(=O)N2CCCc3ccccc32)cc1 (configuration not stated),IC50,[16],2.91 µM (active)
same,IC50,[25],16.4 µM (active)
same,CC50,[26],15.7 µM (active)
COc1ccc(CCOC(=O)c2ccc(NC(=O)CC#N)cc2)cc1,IC50,[16],9.43 µM (active)
same,CC50,[26],> 50 µM (active)
CNc1cccnc1C=NNC(N)=S,AC50,[20],0.805 µM (active)
same,AC50,[21],0.457 µM (active)
same,AC50,[22],1.94 µM (active)
same,AC50,[23],5.69 µM (active)
same,AC50,[27],6.42 µM (active)
same,AC50,[15],2.43 µM (active)
same,AC50,[24],9.89 µM (active)
C[C@]12CC[C@H](O)CC1=CCC1C2CC[C@@]2(C)C1CC[C@@H]2NC(=O)[C@@H](N)Cc1c[nH]cn1 (some centres not stated),AC50,[28],0.952 µM (active)
COC(=O)[C@]12C[C@H](CC(=O)NCc3cccs3)C(=O)N(CCC3=CCCCC3)C1=C[C@H](C(C)(C)C)O[C@@H]2C,AC50,[20],1.91 µM (active)
same,AC50,[21],1.18 µM (active)
same,AC50,[22],5.01 µM (active)
same,AC50,[23],51.6 µM (active)
same,AC50,[24],1.72 µM (active)
CC(=O)c1ccc(Nc2nc(C(N)Cc3ccc(N)cc3)cs2)cc1 (configuration not stated),AC50,[28],30.4 µM (active)
CCOc1ccc2ccccc2c1/C=N\NC(=O)OC,AC50,[29],48.5 µM (active)

# From ChEMBL document CHEMBL1201862, “PubChem BioAssay data set” (2004)
